Test results taken from US9113629B2, “4-amino-6-(4-substituted-phenyl)-picolinates and 6-amino-2-(4-substituted-phenyl)-pyrimidine-4-carboxylates and their use as herbicides” (DOW AGROSCIENCES LLC, priority 2013, dated 2015).
Like-named read-outs stand apart in the source and are kept apart here.

Assays:
[1] = tested on: Key Broadleaf Weed and Crop Species; assay: Post-emergent Test II herbicidal activity (Table 5); assay type: in vivo; details: post-emergence, 336 h, post-emergent, 14 days after application; for pest or weed control at 70 g/ha: 70 g ai/ha; for pest or weed control at 140 g/ha: 140 g ai/ha
Outline: (§1)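 Visual injury ratings (0 = no injury, 100 = complete kill) were taken 14 d after treatment, relative to untreated plants. Seedlings at the first–second true leaf stage received overhead spray at 187 L/ha; the highest rate was serially diluted to ½×, ¼×, ⅛× and 1/16×.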

[2] = tested on: Key Grass and Sedge Weeds as well as Grass Crops; assay: Post-emergent Test II herbicidal activity (Table 6); assay type: in vivo; details: post-emergence, 336 h; for pest or weed control at 70 g/ha: application rate 70 g ai/ha; for pest or weed control at 140 g/ha: application rate 140 g ai/ha
Outline: as §1

[3] = ABUTH: velvetleaf (Abutilon theophrasti), read-out: Visual Growth Reduction (%) 14 Days After Application ABUTH
[4] = BRSNN: oilseed-rape, canola (Brassica napus), read-out: Visual Growth Reduction (%) 14 Days After Application BRSNN
[5] = CHEAL: lambsquarters (Chenopodium album), read-out: Visual Growth Reduction (%) 14 Days After Application CHEAL
[6] = EPHHL: wild poinsettia (Euphorbia heterophylla), read-out: Visual Growth Reduction (%) 14 Days After Application EPHHL
[7] = HELAN: sunflower (Helianthus annuus), read-out: Visual Growth Reduction (%) 14 Days After Application HELAN
[8] = VIOTR: wild pansy (Viola tricolor), read-out: Visual Growth Reduction (%) 14 Days After Application VIOTR
[9] = Triticum aestivum, TRZSS (wheat), read-out: Visual Growth Reduction (%) 14 Days After Application, TRZSS
[10] = CYPES: yellow nutsedge (Cyperus esculentus), read-out: Visual Growth Reduction (%) 14 Days After Application, CYPES
[11] = DIGSA: crabgrass (Digitaria sanguinalis), read-out: Visual Growth Reduction (%) 14 Days After Application, DIGSA
[12] = ECHCG: barnyardgrass (Echinochloa crus-galli), read-out: Visual Growth Reduction (%) 14 Days After Application, ECHCG
[13] = ORYSA: rice (Oryza sativa), read-out: Visual Growth Reduction (%) 14 Days After Application, ORYSA
[14] = SETFA: giant foxtail (Setaria faberi), read-out: Visual Growth Reduction (%) 14 Days After Application, SETFA
[15] = SORVU: grain sorghum (Sorghum vulgare), read-out: Visual Growth Reduction (%) 14 Days After Application, SORVU
[16] = ZEAMX: maize, corn (Zea mays), read-out: Visual Growth Reduction (%) 14 Days After Application, ZEAMX
[17] = AMARE: redroot pigweed (Amaranthus retroflexus), read-out: Visual Growth Reduction (%) 14 Days After Application AMARE

SMILES	pest or weed control at 70 g/ha [1, 3] [%]	pest or weed control at 140 g/ha [1, 3] [%]	pest or weed control at 70 g/ha [1, 4] [%]	pest or weed control at 140 g/ha [1, 4] [%]	pest or weed control at 70 g/ha [1, 5] [%]	pest or weed control at 140 g/ha [1, 5] [%]	pest or weed control at 70 g/ha [1, 6] [%]	pest or weed control at 140 g/ha [1, 6] [%]	pest or weed control at 70 g/ha [1, 7] [%]	pest or weed control at 140 g/ha [1, 7] [%]	pest or weed control at 70 g/ha [1, 8] [%]	pest or weed control at 140 g/ha [1, 8] [%]	pest or weed control at 70 g/ha [2, 9] [%]	pest or weed control at 140 g/ha [2, 9] [%]	pest or weed control at 70 g/ha [2, 10] [%]	pest or weed control at 140 g/ha [2, 10] [%]	pest or weed control at 70 g/ha [2, 11] [%]	pest or weed control at 140 g/ha [2, 11] [%]	pest or weed control at 70 g/ha [2, 12] [%]	pest or weed control at 140 g/ha [2, 12] [%]	other results
C=Cc1c(C(=O)O)nc(-c2ccc(C(F)(F)F)c(F)c2)c(F)c1N [Compound 86]	95 to 100	95 to 100	75 to 84	95 to 100	95 to 100	95 to 100	95 to 100	95 to 100	95 to 100	95 to 100	95 to 100	95 to 100	0 to 29	0 to 29	95 to 100	95 to 100	0 to 29	0 to 29	75 to 84	85 to 94	pest or weed control at 70 g/ha [2, 13]: 30 to 44%; pest or weed control at 140 g/ha [2, 13]: 45 to 59%; pest or weed control at 70 g/ha [2, 14]: 0 to 29%; pest or weed control at 140 g/ha [2, 14]: 0 to 29%; pest or weed control at 70 g/ha [2, 15]: 75 to 84%; pest or weed control at 70 g/ha [2, 16]: 60 to 74%; pest or weed control at 140 g/ha [2, 16]: 60 to 74%
C=Cc1c(C(=O)OC)nc(-c2ccc(C(F)(F)F)c(F)c2F)c(F)c1N [Compound 53, methyl 4-amino-6-(2,3-difluoro-4-(trifluoromethyl)phenyl)-5-fluoro-3-vinylpicolinate]	0 to 29	0 to 29	0 to 29	0 to 29	0 to 29	0 to 29	95 to 100	95 to 100	0 to 29	0 to 29	0 to 29	0 to 29	0 to 29	0 to 29	0 to 29	0 to 29	0 to 29	0 to 29	0 to 29	0 to 29	pest or weed control at 70 g/ha [1, 17]: 0 to 29%; pest or weed control at 140 g/ha [1, 17]: 0 to 29%; pest or weed control at 70 g/ha [2, 13]: 0 to 29%; pest or weed control at 140 g/ha [2, 13]: 0 to 29%; pest or weed control at 70 g/ha [2, 14]: 0 to 29%; pest or weed control at 140 g/ha [2, 14]: 0 to 29%; pest or weed control at 70 g/ha [2, 15]: 0 to 29%; pest or weed control at 140 g/ha [2, 15]: 0 to 29%; pest or weed control at 70 g/ha [2, 16]: 0 to 29%; pest or weed control at 140 g/ha [2, 16]: 0 to 29%
COC(=O)c1nc(-c2ccc(OC(F)F)cc2)cc(N)c1Cl [Compound 23]	95 to 100	95 to 100	0 to 29	0 to 29	85 to 94	95 to 100	95 to 100	95 to 100	0 to 29	85 to 94	0 to 29	0 to 29	0 to 29	0 to 29	45 to 59	75 to 84	75 to 84	75 to 84	85 to 94	95 to 100	pest or weed control at 70 g/ha [1, 17]: 95 to 100%; pest or weed control at 140 g/ha [1, 17]: 95 to 100%; pest or weed control at 70 g/ha [2, 13]: 0 to 29%; pest or weed control at 140 g/ha [2, 13]: 0 to 29%; pest or weed control at 70 g/ha [2, 14]: 0 to 29%; pest or weed control at 140 g/ha [2, 14]: 45 to 59%; pest or weed control at 70 g/ha [2, 15]: 85 to 94%; pest or weed control at 140 g/ha [2, 15]: 95 to 100%; pest or weed control at 70 g/ha [2, 16]: 0 to 29%; pest or weed control at 140 g/ha [2, 16]: 0 to 29%
